From patent US20260098061A1, “EPHA2-BINDING PENDING PEPTIDE AND COMPOSITION COMPRISING SAME” (PeptiDream Inc., priority 2022, published 2026)
Numbered stars: 1 amine (or outer) side, 2 acyl side, 3 side chain; on linkers, the order of the positions; unused ones are H or OH. Bridge positions count the residues as written; N and C are the ends. Square brackets hold non-standard residues; d marks the D form. Side chains are listed from the residue outwards. Peptide text beside a SMILES is read from it. * marks the point of attachment. NH(1-deoxy-D-glucityl) = OC[C@@H](O)[C@@H](O)[C@H](O)[C@@H](O)CN*; Trp(1-Me,7-Cl) = Cn1cc(C[C@H](N)C(=O)O)c2cccc(Cl)c21; Ala(2-NH2-4-pyridyl) = Nc1cc(C[C@H](N)C(=O)O)ccn1; dPhe(3-CONH2) = NC(=O)c1cccc(C[C@@H](N)C(=O)O)c1; X3 = CN([C@@H](Cc1ccnc(N)c1)C(=O)[*:2])[*:1]; Piperazinyl(4-CH2COOH) = O=C(O)CN1CCN(*)CC1; Trp(1-Me) = Cn1cc(C[C@H](N)C(=O)O)c2ccccc21; NMemTyr = CN[C@@H](Cc1cccc(O)c1)C(=O)O; NMehCit = CN[C@@H](CCCCNC(N)=O)C(=O)O; NMe3Pal = CN[C@@H](Cc1cccnc1)C(=O)O; NMeF = CN[C@@H](Cc1ccccc1)C(=O)O; hCit = NC(=O)NCCCC[C@H](N)C(=O)O; Gly(cBu) = N[C@H](C(=O)O)C1CCC1; NMeE = CN[C@@H](CCC(=O)O)C(=O)O; Aad = N[C@@H](CCCC(=O)O)C(=O)O; Pen = CC(C)(S)[C@H](N)C(=O)O; NMeA = CN[C@@H](C)C(=O)O; CO = O=C([*:1])[*:2]

Molecular target: T1, Recombinant Human EphA2 Fc Protein (Homo sapiens, UniProt P29317)
T1 construct: purchased Elabscience
Test: SPR interaction analysis (Biacore T200), kinetics of peptides against EphA2
Assay type: binding
Details: Recombinant Human EphA2 Fc Protein captured by Human Antibody Capture kit; single-cycle kinetics; 25° C.; HBS-P+ buffer with 1% DMSO
Outline: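 On a Biacore T200 at 25° C, Fc-tagged human EphA2 was captured via anti-human antibody; peptides ran as five serial dilutions in HBS-P+ pH 7.4 with 1% DMSO by single-cycle kinetics. Baseline-subtracted data fitted for ka and kd, from which KD was derived.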

Structure (SMILES) | Kd
CC(C)C[C@@H]1NC(=O)[C@H](Cc2ccnc(N)c2)NC(=O)[C@H](Cc2ccccc2)NC(=O)CSC[C@@H](C(N)=O)NC(=O)[C@H](Cc2cn(C)c3ccccc23)NC(=O)[C@H](Cc2ccccc2)N(C)C(=O)[C@H](Cc2cn(C)c3ccccc23)NC(=O)[C@H](C)N(C)C1=O [PDC_EphA2-00026479, F-4Py2NH2-L-MeA-W1Me-MeF-W1Me-C-NH2] ({CH2CO}-F[Ala(2-NH2-4-pyridyl)]L[NMeA][Trp(1-Me)][NMeF][Trp(1-Me)]C-NH2; thioether N-8) | 100 to 400 nM
CC(C)C[C@@H]1NC(=O)[C@H](Cc2ccnc(N)c2)NC(=O)[C@H](Cc2ccccc2)NC(=O)CSC[C@@H](C(N)=O)NC(=O)[C@H](Cc2cn(C)c3ccccc23)NC(=O)[C@H](Cc2ccccc2)N(C)C(=O)[C@H](Cc2cn(C)c3ccccc23)NC(=O)[C@H](CCCCNC(N)=O)N(C)C1=O [PDC_EphA2-00026481, F-4Py2NH2-L-MeHcit-W1Me-MeF-W1Me-C-NH2] ({CH2CO}-F[Ala(2-NH2-4-pyridyl)]L[NMehCit][Trp(1-Me)][NMeF][Trp(1-Me)]C-NH2; thioether N-8) | 100 to 400 nM
CC(C)C[C@@H]1NC(=O)[C@H](CC(N)=O)NC(=O)[C@H](Cc2cccnc2)N(C)C(=O)[C@@H](Cc2cccc(C(N)=O)c2)NC(=O)CSC[C@@H](C(N)=O)NC(=O)[C@H](Cc2cn(C)c3ccccc23)NC(=O)[C@H](CCCCNC(N)=O)NC(=O)[C@H](Cc2cn(C)c3c(Cl)cccc23)NC(=O)[C@H](Cc2ccccc2)N(C)C(=O)[C@H](CO)NC1=O [PDC_EphA2-00026600, df3CON-Me3Py-N-L-S-MeF-W1Me7Cl-Hcit-W1Me-C-NH2] ({CH2CO}-[dPhe(3-CONH2)][NMe3Pal]NLS[NMeF][Trp(1-Me,7-Cl)][hCit][Trp(1-Me)]C-NH2; thioether N-10) | 1 to 10 nM
CC(C)C[C@@H]1NC(=O)[C@H](CC(N)=O)NC(=O)[C@H](Cc2cccnc2)N(C)C(=O)[C@@H](Cc2cccc(C(N)=O)c2)NC(=O)CSC[C@@H](C(N)=O)NC(=O)[C@H](Cc2cn(C)c3ccccc23)NC(=O)[C@H](CCCCNC(N)=O)NC(=O)[C@H](Cc2cn(C)c3c(Cl)cccc23)NC(=O)[C@H](Cc2cccnc2)N(C)C(=O)[C@H](CO)NC1=O [PDC_EphA2-00026601, df3CON-Me3Py-N-L-S-Me3Py-W1Me7Cl-Hcit-W1Me-C-NH2] ({CH2CO}-[dPhe(3-CONH2)][NMe3Pal]NLS[NMe3Pal][Trp(1-Me,7-Cl)][hCit][Trp(1-Me)]C-NH2; thioether N-10) | 1 to 10 nM
CN1C(=O)[C@H](CCC(=O)NC[C@H](O)[C@@H](O)[C@H](O)[C@H](O)CO)NC(=O)[C@H](C2CCC2)NC(=O)[C@H](CC(N)=O)NC(=O)[C@H](Cc2ccnc(N)c2)N(C)C(=O)[C@@H](Cc2cccc(C(N)=O)c2)NC(=O)CSC[C@@H](C(N)=O)NC(=O)[C@H](Cc2cn(C)c3ccccc23)NC(=O)[C@H](CCCCNC(=O)N2CCN(CC(=O)O)CC2)NC(=O)[C@H](Cc2cn(C)c3c(Cl)cccc23)NC(=O)[C@@H]1Cc1cccnc1 [PDC_EphA2-00026605, df3CON-Me4Py2NH2-N-Cbg-Qglucamine-Me3Py-W1Me7Cl-KCOpipzaa-W1Me-C-NH2] ({CH2CO}-[dPhe(3-CONH2)][X3]N[Gly(cBu)]E(NH(1-deoxy-D-glucityl))[NMe3Pal][Trp(1-Me,7-Cl)]K([CO-Piperazinyl(4-CH2COOH)])[Trp(1-Me)]C-NH2; thioether N-10) | 1 to 10 nM
CN1C(=O)[C@H](CCCC(N)=O)NC(=O)[C@H](C2CCC2)NC(=O)[C@H](CC(N)=O)NC(=O)[C@H](Cc2cccc(O)c2)N(C)C(=O)[C@@H](Cc2cccc(C(N)=O)c2)NC(=O)CSC[C@@H](C(N)=O)NC(=O)[C@H](Cc2cn(C)c3ccccc23)NC(=O)[C@H](CCCCNC(=O)N2CCN(CC(=O)O)CC2)NC(=O)[C@H](Cc2cn(C)c3c(Cl)cccc23)NC(=O)[C@@H]1CCC(=O)O [PDC_EphA2-00026608, df3CON-MeF3H-N-Cbg-Hgn-MeE-W1Me7Cl-KCOpipzaa-W1Me-C-NH2] ({CH2CO}-[dPhe(3-CONH2)][NMemTyr]N[Gly(cBu)][Aad](NH2)[NMeE][Trp(1-Me,7-Cl)]K([CO-Piperazinyl(4-CH2COOH)])[Trp(1-Me)]C-NH2; thioether N-10) | < 1 nM
CN1C(=O)[C@H](CCCC(N)=O)NC(=O)[C@H](C2CCC2)NC(=O)[C@H](CC(N)=O)NC(=O)[C@H](Cc2cccnc2)N(C)C(=O)[C@@H](Cc2cccc(C(N)=O)c2)NC(=O)CSC(C)(C)[C@@H](C(N)=O)NC(=O)[C@H](Cc2cn(C)c3ccccc23)NC(=O)[C@H](CCCCNC(=O)N2CCN(CC(=O)O)CC2)NC(=O)[C@H](Cc2cn(C)c3c(Cl)cccc23)NC(=O)[C@@H]1CCC(=O)O [PDC_EphA2-00026609, df3CON-Me3Py-N-Cbg-Hgn-MeE-W1Me7Cl-KCOpipzaa-W1Me-CdMe-NH2] ({CH2CO}-[dPhe(3-CONH2)][NMe3Pal]N[Gly(cBu)][Aad](NH2)[NMeE][Trp(1-Me,7-Cl)]K([CO-Piperazinyl(4-CH2COOH)])[Trp(1-Me)][Pen]-NH2; thioether N-10) | 1 to 10 nM
C[C@@H]1SCC(=O)N[C@H](Cc2cccc(C(N)=O)c2)C(=O)N(C)[C@@H](Cc2cccnc2)C(=O)N[C@@H](CC(N)=O)C(=O)N[C@@H](C2CCC2)C(=O)N[C@@H](CCCC(N)=O)C(=O)N(C)[C@@H](CCC(=O)O)C(=O)N[C@@H](Cc2cn(C)c3c(Cl)cccc23)C(=O)N[C@@H](CCCCNC(=O)N2CCN(CC(=O)O)CC2)C(=O)N[C@@H](Cc2cn(C)c3ccccc23)C(=O)N[C@@H]1C(N)=O [PDC_EphA2-00026610, df3CON-Me3Py-N-Cbg-Hgn-MeE-W1Me7Cl-KCOpipzaa-W1Me-C3SMe-NH2] | 1 to 10 nM
C[C@H]1SCC(=O)N[C@H](Cc2cccc(C(N)=O)c2)C(=O)N(C)[C@@H](Cc2cccnc2)C(=O)N[C@@H](CC(N)=O)C(=O)N[C@@H](C2CCC2)C(=O)N[C@@H](CCCC(N)=O)C(=O)N(C)[C@@H](CCC(=O)O)C(=O)N[C@@H](Cc2cn(C)c3c(Cl)cccc23)C(=O)N[C@@H](CCCCNC(=O)N2CCN(CC(=O)O)CC2)C(=O)N[C@@H](Cc2cn(C)c3ccccc23)C(=O)N[C@@H]1C(N)=O [PDC_EphA2-00026611, df3CON-Me3Py-N-Cbg-Hgn-MeE-W1Me7Cl-KCOpipzaa-W1Me-C3RMe-NH2] | < 1 nM

More lines, now with the values ahead:

Kd | Structure (SMILES)
< 1 nM | CN1C(=O)[C@H](CO)NC(=O)[C@H](C2CCC2)NC(=O)[C@H](CC(N)=O)NC(=O)[C@H](Cc2cccnc2)N(C)C(=O)[C@@H](Cc2cccc(C(N)=O)c2)NC(=O)CSC[C@@H](C(N)=O)NC(=O)[C@H](Cc2cn(C)c3ccccc23)NC(=O)[C@H](CCCCNC(N)=O)NC(=O)[C@H](Cc2cn(C)c3c(Cl)cccc23)NC(=O)[C@@H]1Cc1cccnc1 [PDC_EphA2-00026602, df3CON-Me3Py-N-Cbg-S-Me3Py-W1Me7Cl-Hcit-W1Me-C-NH2] ({CH2CO}-[dPhe(3-CONH2)][NMe3Pal]N[Gly(cBu)]S[NMe3Pal][Trp(1-Me,7-Cl)][hCit][Trp(1-Me)]C-NH2; thioether N-10)
< 1 nM | CN1C(=O)[C@H](CCC(=O)NC[C@H](O)[C@@H](O)[C@H](O)[C@H](O)CO)NC(=O)[C@H](C2CCC2)NC(=O)[C@H](CC(N)=O)NC(=O)[C@H](Cc2cccnc2)N(C)C(=O)[C@@H](Cc2cccc(C(N)=O)c2)NC(=O)CSC[C@@H](C(N)=O)NC(=O)[C@H](Cc2cn(C)c3ccccc23)NC(=O)[C@H](CCCCNC(=O)N2CCN(CC(=O)O)CC2)NC(=O)[C@H](Cc2cn(C)c3c(Cl)cccc23)NC(=O)[C@@H]1Cc1cccnc1 [PDC_EphA2-00026603, df3CON-Me3Py-N-Cbg-Qglucamine-Me3Py-W1Me7Cl-KCOpipzaa-W1Me-C-NH2] ({CH2CO}-[dPhe(3-CONH2)][NMe3Pal]N[Gly(cBu)]E(NH(1-deoxy-D-glucityl))[NMe3Pal][Trp(1-Me,7-Cl)]K([CO-Piperazinyl(4-CH2COOH)])[Trp(1-Me)]C-NH2; thioether N-10)
< 1 nM | CN1C(=O)[C@H](CCC(=O)NC[C@H](O)[C@@H](O)[C@H](O)[C@H](O)CO)NC(=O)[C@H](C2CCC2)NC(=O)[C@H](CC(N)=O)NC(=O)[C@H](Cc2cccnc2)N(C)C(=O)[C@@H](Cc2cccc(C(N)=O)c2)NC(=O)CSC[C@@H](C(N)=O)NC(=O)[C@H](Cc2cn(C)c3ccccc23)NC(=O)[C@H](CCC(=O)NC[C@H](O)[C@@H](O)[C@H](O)[C@H](O)CO)NC(=O)[C@H](Cc2cn(C)c3c(Cl)cccc23)NC(=O)[C@@H]1Cc1cccnc1 [PDC_EphA2-00026604, df3CON-Me3Py-N-Cbg-Qglucamine-Me3Py-W1Me7Cl-Qglucamine-W1Me-C-NH2] ({CH2CO}-[dPhe(3-CONH2)][NMe3Pal]N[Gly(cBu)]E(NH(1-deoxy-D-glucityl))[NMe3Pal][Trp(1-Me,7-Cl)]E(NH(1-deoxy-D-glucityl))[Trp(1-Me)]C-NH2; thioether N-10)
< 1 nM | CN1C(=O)[C@H](CCCC(N)=O)NC(=O)[C@H](C2CCC2)NC(=O)[C@H](CC(N)=O)NC(=O)[C@H](Cc2cccnc2)N(C)C(=O)[C@@H](Cc2cccc(C(N)=O)c2)NC(=O)CSC[C@@H](C(N)=O)NC(=O)[C@H](Cc2cn(C)c3ccccc23)NC(=O)[C@H](CCCCNC(=O)N2CCN(CC(=O)O)CC2)NC(=O)[C@H](Cc2cn(C)c3c(Cl)cccc23)NC(=O)[C@@H]1CCC(=O)O [PDC_EphA2-00026606, df3CON-Me3Py-N-Cbg-Hgn-MeE-W1Me7Cl-KCOpipzaa-W1Me-C-NH2] ({CH2CO}-[dPhe(3-CONH2)][NMe3Pal]N[Gly(cBu)][Aad](NH2)[NMeE][Trp(1-Me,7-Cl)]K([CO-Piperazinyl(4-CH2COOH)])[Trp(1-Me)]C-NH2; thioether N-10)
< 1 nM | CN1C(=O)[C@H](CCC(=O)NC[C@H](O)[C@@H](O)[C@H](O)[C@H](O)CO)NC(=O)[C@H](C2CCC2)NC(=O)[C@H](CC(N)=O)NC(=O)[C@H](Cc2cccnc2)N(C)C(=O)[C@@H](Cc2cccc(C(N)=O)c2)NC(=O)CSC[C@@H](C(N)=O)NC(=O)[C@H](Cc2cn(C)c3ccccc23)NC(=O)[C@H](CCCCNC(N)=O)NC(=O)[C@H](Cc2cn(C)c3c(Cl)cccc23)NC(=O)[C@@H]1CCC(=O)O [PDC_EphA2-00026607, df3CON-Me3Py-N-Cbg-Qglucamine-MeE-W1Me7Cl-Hcit-W1Me-C-NH2] ({CH2CO}-[dPhe(3-CONH2)][NMe3Pal]N[Gly(cBu)]E(NH(1-deoxy-D-glucityl))[NMeE][Trp(1-Me,7-Cl)][hCit][Trp(1-Me)]C-NH2; thioether N-10)
